Data: patent US5892113A, “Hydroxyethyl aminimides” (priority 1997, dated 1999)

Target: T1, HIV-1 protease (HIV-1 M:B_ARV2/SF2, UniProt P03369, C557X/C585X)
T1 construct: aminobutyric acid at 67 and 95, thioester at 51-52; NovaBiochem kit
Test: Fluorometric HIV-1 protease inhibition assay (NovaBiochem kit, fluorogenic substrate)
Format: biochemical
Protocol: The inhibition constant (Ki) of compound Ia is determined using HIV-1 protease kit supplied by NovaBiochem (cat. #10-39-0001, which supplies a solid phase synthesized analog of the protease, incorporating the unnatural residue aminobutyric acid in place of both cysteine residues 67 and 95, along with a thioester linkage in place of the normal peptide bond between residues 51-52). A fluorometric assay is performed using a fluorogenic substrate supplied by NovaBiochem (cat. #05-23-5216, Abz-Thr-Ile-Nle-Phe(NO2)-Gln-Arg-NH2). Initial rates of substrate hydrolysis are determined by following the increase in the fluorescence emission at 420 nm (excitation is at 325 nm) as the substrate is digested by the protease. The initial rates of substrate cleavage is determined in the absence and presence of compound Ia (up to a concentration of Ia=500 nM).

In the case of `CC(C)(C)OC(=O)N[C@@H](Cc1ccccc1)[C@@H](O)C[N+](C)(Cc1ccccc1)[N-]C(=O)c1ccccc1` (single isomer, unassigned) [Ia], the “mode of inhibition (Lineweaver-Burk analysis)” value (initial rates of substrate cleavage in absence and presence of Ia (up to 500 nM)) is reported as “classical competitive inhibition” and the Ki (read-out: inhibition constant (Ki), synthetic HIV-1 protease analog (NovaBiochem), substrate Abz-Thr-Ile-Nle-Phe(NO2)-Gln-Arg-NH2, replot of Lineweaver-Burk slopes, Ia up to 500 nM) is reported as 137 nM.
